These results are taken from ChEMBL document CHEMBL4390710, “Synthesis and biological evaluation of novel 4,7-dihydroxycoumarin derivatives as anticancer agents” (Bioorg Med Chem Lett, 2019).

Experiment [1] relates to SK-N-SH. Nature of the experiment: Cytotoxicity against human SK-N-SH cells measured after 24 hrs by MTT assay. The format is functional, cell-based.
In experiment [2] the test system is NRK-49F. Nature of the experiment: Cytotoxicity against rat NRK-49F cells measured after 24 hrs by MTT assay. It counts as functional, cell-based. For orientation: Tetrazolium assays rely on reduction of a dye to a coloured formazan, in cell work by metabolically active cells.
For experiment [3], the system named is MCF7. Nature of the experiment: Cytotoxicity against human MCF7 cells measured after 24 hrs by MTT assay. It counts as functional, cell-based.
In experiment [4] the test system is HeLa. Nature of the experiment: Cytotoxicity against human HeLa cells measured after 24 hrs by MTT assay. The format is functional, cell-based. Also noted: unit not given here.
Experiment [5] concerns A549. The experiment can be described thus: Cytotoxicity against human A549 cells measured after 24 hrs by MTT assay. It counts as functional, cell-based.
Experiment [6] is described as follows: Inhibition of goat brain tubulin polymerization. Also noted: species or system Capra hircus.
The test system of experiment [7] is MCF7. The experiment can be described thus: Cell cycle arrest in human MCF7 cells assessed as accumulation at G1-phase at 4 uM measured after 24 hrs by propidium iodide staining based flow cytometry (reference value: 57%). The format is functional. A general note: Flow cytometry measures light scatter and fluorescence of single cells or particles in a stream.

Experiment [8] relates to MCF7. Nature of the experiment: Cell cycle arrest in human MCF7 cells assessed as accumulation at S-phase at 4 uM measured after 24 hrs by propidium iodide staining based flow cytometry (reference value: 14.9%). The format is functional.
Experiment [9] has as its system MCF7. Nature of the experiment: Cell cycle arrest in human MCF7 cells assessed as accumulation at subG0-phase at 4 uM measured after 24 hrs by propidium iodide staining based flow cytometry (reference value: 13.9%). It counts as functional.
The test system of experiment [10] is MCF7. Nature of the experiment: Cell cycle arrest in human MCF7 cells assessed as accumulation at G2/M-phase at 4 uM measured after 24 hrs by propidium iodide staining based flow cytometry (reference value: 13.8%). The format is functional.
Experiment [11] concerns MCF7. The experiment can be described thus: Cell cycle arrest in human MCF7 cells assessed as accumulation at G2/M-phase at 4 uM measured after 24 hrs by propidium iodide staining based flow cytometry relative to control. It counts as functional.

Take `COc1ccc(/C=C(\C#N)C(=O)N/N=C(\C)c2c(O)c3ccc(O)cc3oc2=O)cc1OC`: the IC50 in [1] came to 21.53 µmol; in experiment [2], 45.28 µmol; in experiment [3], 14.35 µmol; in [4], 13.52; in experiment [5] it was 14.32 µmol.
Turning to `C/C(=N\NC(=O)/C(C#N)=C/c1ccc(Br)cc1)c1c(O)c2ccc(O)cc2oc1=O`, the IC50 was found to be 12.05 µmol in experiment [1]; 49.64 µmol in experiment [2]; 9.85 µmol in [3]; 10.56 in experiment [4]; 11.43 µmol in [5].
With `C/C(=N\NC(=O)/C(C#N)=C/c1ccc(N(C)C)cc1)c1c(O)c2ccc(O)cc2oc1=O`, the IC50 stood at 6.19 µM in experiment [6]; 6.09 µmol in experiment [1]; 53.41 µmol in experiment [2]; 3.42 µmol in [3]; 5.14 in experiment [4]; 4.31 µmol in experiment [5]. For the same compound, the Activity is 22.7 - 22.8% in [7], 22.6% in experiment [8], 8.5 - 10.6% in experiment [9] and 45.3% in experiment [10]. Besides, the “fold change (FC)” value in experiment [11] worked out at 4.
Take `COc1cc(/C=C(\C#N)C(=O)N/N=C(\C)c2c(O)c3ccc(O)cc3oc2=O)cc(OC)c1OC`: the IC50 in experiment [1] was 14.61 µmol; in experiment [2] it was 55.34 µmol; in [3] it was 11.34 µmol; in experiment [4] it was 18.46; in experiment [5], 15.32 µmol.
Turning to `C/C(=N\NC(=O)/C(C#N)=C/c1ccccc1Cl)c1c(O)c2ccc(O)cc2oc1=O`, the IC50 turned out to be 14.02 µmol in experiment [1]; 55.89 µmol in [2]; 8.88 µmol in [3]; 11.78 in experiment [4]; 14.23 µmol in experiment [5].
Turning to `C/C(=N\NC(=O)/C(C#N)=C/c1ccccc1[N+](=O)[O-])c1c(O)c2ccc(O)cc2oc1=O`, the IC50 in experiment [1] was found to be 12.26 µmol; in [2], 68.59 µmol; in experiment [3] it was 9.18 µmol; in experiment [4] it was 10.31; in experiment [5] it was 11.35 µmol.
For `C/C(=N\NC(=O)/C(C#N)=C/c1ccc([N+](=O)[O-])cc1)c1c(O)c2ccc(O)cc2oc1=O` the same measures were 10.26 µmol, 43.22 µmol, 8.2 µmol, 8.36 and 9.64 µmol.
`C/C(=N\NC(=O)/C(C#N)=C/c1cccc([N+](=O)[O-])c1)c1c(O)c2ccc(O)cc2oc1=O`: the IC50 in experiment [1] came to 28.26 µmol; in experiment [2], 46.53 µmol; in experiment [3], 16.35 µmol; in experiment [4], 24.64; in experiment [5], 21.9 µmol.
As for `C/C(=N\NC(=O)/C(C#N)=C/c1cccc(Br)c1)c1c(O)c2ccc(O)cc2oc1=O`, the IC50 in experiment [1] was 31.28 µmol; in [2], 59.39 µmol; in experiment [3], 19.64 µmol; in experiment [4] it was 24.28; in experiment [5] it was 22.15 µmol.
`C/C(=N\NC(=O)/C(C#N)=C/c1ccc(O)cc1)c1c(O)c2ccc(O)cc2oc1=O`: the IC50 was determined as 8.12 µmol in [1]; 61.31 µmol in [2]; 7.32 µmol in [3]; 6.02 in experiment [4]; 6.23 µmol in [5].
For `COc1cc(/C=C(\C#N)C(=O)N/N=C(\C)c2c(O)c3ccc(O)cc3oc2=O)ccc1O` the same measures were 14.35 µmol, 55.42 µmol, 13.65 µmol, 10.46 and 12.63 µmol.
For `COc1ccc(/C=C(\C#N)C(=O)N/N=C(\C)c2c(O)c3ccc(O)cc3oc2=O)cc1`, the IC50 in experiment [1] stood at 9.46 µmol; in [2], 96.1 µmol; in [3], 8.94 µmol; in experiment [4], 7.85; in [5], 8.15 µmol.
As to `C/C(=N\NC(=O)/C(C#N)=C/c1ccccc1)c1c(O)c2ccc(O)cc2oc1=O`, the IC50 in [1] was determined as 13.52 µmol; in [2] it was 55.45 µmol; in [3] it was 19.22 µmol; in experiment [4], 15.75; in [5] it was 14.82 µmol.
Regarding `COc1cccc2c1C(=O)c1c(O)c3c(c(O)c1C2=O)C[C@@](O)(C(=O)CO)C[C@@H]3O[C@H]1C[C@H](N)[C@H](O)[C@H](C)O1` [DOXORUBICIN], the IC50 in experiment [1] amounted to 6.42 µmol; in [2], 24.22 µmol; in experiment [3], 9.86 µmol; in experiment [5] it was 6.22 µmol.
As to `COC(=O)Nc1nc2cc(C(=O)c3cccs3)ccc2[nH]1` [NOCODAZOLE], the Activity in [7] was 21.6%; in experiment [8], 22%; in experiment [9], 16.4 - 16.8%; in experiment [10] it was 39.3%.
